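These data come from cells grown in 96-well plates and exposed to compound for 48 hours at five concentrations. The concentration for 50% growth inhibition is given as GI50. TGI: concentration producing complete growth inhibition.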
What was measured:
Experiment in all cases: NCI anticancer screen, dose series, 48 h
[1] = system: TK-10 renal
[2] = system: EKVX NSCLC
[3] = system: CAKI-1 renal
[4] = system: OVCAR-5 ovarian
[5] = system: SK-MEL-2 melanoma
[6] = system: COLO 205 colon
[7] = system: HCT-116 colon
[8] = system: SK-OV-3 ovarian
[9] = system: OVCAR-8 ovarian
[10] = system: MOLT-4 leukemia

SMILES | GI50 [1] [µM] | TGI [1] [µM] | GI50 [2] [µM] | TGI [2] [µM] | GI50 [3] [µM] | TGI [3] [µM] | GI50 [4] [µM] | TGI [4] [µM] | GI50 [5] [µM] | TGI [5] [µM] | GI50 [6] [µM] | TGI [6] [µM] | GI50 [7] [µM] | TGI [7] [µM] | GI50 [8] [µM] | TGI [8] [µM] | GI50 [9] [µM] | TGI [9] [µM] | GI50 [10] [µM] | TGI [10] [µM]
COc1ccc(C2CC(c3ccc4ccccc4c3)=NN2/C=C2\SC(=S)N(NC(=O)Cc3ccccc3Nc3c(Cl)cccc3Cl)C2=O)cc1 (centres undefined) | 3.57 | 43.2 | 1.45 | > 61.5 | 0.392 | > 40 | 1.74 | > 45.6 | 2.95 | 18.8 | 1.89 | > 100 | 0.482 | > 39.6 | 0.847 | > 100 | 0.693 | > 100 | 0.473 | > 100
CS(=O)(=O)c1nccc(-c2c(-c3cccc(OCc4ccccc4)c3)nc3sccn23)n1 | 53.2 | > 100 | 26.4 | > 100 | 4.58 | > 100 | > 100 | > 100 | > 100 | > 100 | 25.3 | > 100 | 7.16 | > 100 | 23.3 | > 100 | > 27.4 | > 100 | 1.64 | > 100
COc1cc(/C=C/C(=O)c2ccc(F)cc2)ccc1OCCCCOc1cc2c(cc1OC)C(=O)N1CCCC1C=N2 (centres undefined) | 1.7 | 23.2 | 4.05 | > 34.9 | 1.12 | 25.6 | 3.85 | > 26.6 | 1.33 | 12.8 | 2.11 | 9.19 | 0.618 | 6.09 | 1.67 | > 44.5 | 1.55 | > 20.2 | 0.317 | 2.18
COc1ccc(C(=O)OC2C(OC3C(O)COC(O[C@H]4C[C@H]5[C@@H]6CC=C7C[C@@H](O)CC[C@]7(C)[C@H]6CC[C@]5(C)[C@H]4[C@H](C)C(=O)CCC(C)C)C3OC(=O)C(C)C)OCC(O)C2O)cc1 (some centres undefined) | 0.411 | 6.24 | 0.0163 | 3.87 | 0.0172 | 1.64 | 0.204 | 5.22 | 0.0102 | 0.213 | 0.0575 | 0.325 | 0.0107 | 3.25 | 0.0127 | 1.52 | 2.82 | 8.4 | 0.00649 | 0.0192
O=C1C2=C(C(=O)c3c(O)ccc(O)c31)N(c1cccnc1)Cc1ccccc1O2 | 0.27 | 0.983 | 1.18 | 5.74 | 0.103 | 0.421 | 0.564 | 1.8 | 1.54 | 4.78 | 0.102 | 0.333 | 0.0923 | 0.324 | 3.52 | 12.8 | 0.552 | 3.43 | 0.21 | 
CN1C(=O)C(C)(C)NS1(=O)=O |  | > 100 |  | > 100 |  | > 100 |  | > 100 |  | > 100 |  | > 100 |  | > 100 |  | > 100 |  | > 100 |  | > 100
C/C(=N\N)C(CN1CCCCC1)C(c1ccccc1)c1c(O)c2ccccc2oc1=O (centres undefined) |  | > 100 |  | > 100 |  | > 100 |  | > 100 |  | > 100 |  | > 100 |  | > 100 |  | > 100 |  | > 100 |  | > 100
CCOc1ccc(NC(=O)/C(Cc2nc3ccccc3[nH]c2=O)=N\O)cc1 |  | > 100 |  | > 100 |  | > 100 |  | > 100 |  | > 100 |  | > 100 |  | > 100 |  | > 100 |  | > 100 |  | > 100
C=C(c1ccccc1)[C@@]1(O)CCCC[C@H]1NC(c1ccccc1)c1ccccc1 |  | 32.5 |  | 43.7 |  | 21.4 |  | 27 |  | 27.4 |  | 28 |  | 20.5 |  | 44.2 |  | 28.1 |  | 8.24
COc1cccc(-c2cc(C(=O)Nc3ccc(Cl)cc3)nc(N)n2)c1 |  | > 100 |  | > 100 |  | > 100 |  | > 100 |  | > 100 |  | 71.4 |  | > 100 |  | > 100 |  | > 100 |  | > 100
CC/C=C\C[C@H](O)C/C=C1/C(=O)C=C[C@@H]1C/C=C\CCCC(=O)OCCS(=O)(=O)c1ccccc1 | 5.58 | 17.3 | 12.2 | 30.5 | 3.86 | 13.7 | 12.4 | 29.5 | 4.14 | 17.9 | 2.85 | 6.89 | 2.35 | 5.06 | 6.38 | 27.7 | 4.07 | 15.3 | 2.83 | 13.4
C=C(C)[C@@H]1CC[C@]2(C(=O)N3CCN(C)CC3)CC[C@]3(C)[C@H](CC[C@@H]4[C@@]5(C)C/C(=C/c6ccncc6)[C@H](O)C(C)(C)[C@@H]5CC[C@]43C)[C@@H]12 | 15.5 | 89.4 | 6.04 | 43.2 | 5.82 | 25.5 | 6.04 | 26.8 | 8.41 | 26.2 | 3.16 | 23 | 1.6 | 4.46 | 12 | 96.5 | 7.68 | 30.7 | 2.36 | 11
